# Assay results published in patent US6995135B2, “Peptides and peptidomimetics having anti-proliferative activity and/or that augment nucleic acid damaging agents or treatments” (priority 2002, dated 2006).
# Entries after “also recorded” stand apart in the source; their conditions may differ. Square brackets hold non-standard residues; d marks the D form. Peptide text beside a SMILES is read from it. dPhe(F5) = N[C@H](Cc1c(F)c(F)c(F)c(F)c1F)C(=O)O; dBpa = N[C@H](Cc1ccc(C(=O)c2ccccc2)cc1)C(=O)O; dCha = N[C@H](CC1CCCCC1)C(=O)O
# Columns and labels:
# [1] = Human serum treatment analysis, residual G2 checkpoint abrogating activity; type: in vitro ADME; conditions: d-type amino acid peptides compared with l-type peptide such as CBP413
# Protocol: Serum analysis was performed to determine the stability of peptides in mouse and human serum. Briefly, peptides (10 mM or 2.5 mM) were incubated with freshly prepared human serum at 37 degrees for 1 hr. CBP50 (10 mM) was incubated with freshly prepared mouse serum for 1 hr at 37 degree. Jurkat cells were treated with the serum with or without peptides and bleomycin (40 μg/ml) and incubated for 24 hr. The population of G2 phase cells was determined by flow cytometry as previously described. The residual G2 checkpoint abrogating activity of serum treated peptides were determined by comparing the % G2 cells of the treated serum and the standard curve produced with medium treated peptides, bleomycin and Jurkat cells (Table 5A).
# MIAPaCa2 [2] = assay: Growth inhibition analysis of MIAPaCa2 using alamar blue; type: cell-based, human
# Protocol: The medium was changed and incubated an additional 24, 48 or 72 hour. Following incubation, 20 μl of alamarBlue 90% reagent was added to each well for another 6 hours for detection of cell viability by fluorescent intensity. Fluorescent intensity was measured using a Spectrafluor Plus plate reader with exitation 530 nm and emission 590 nm. The IC50 was calculated (Table 6).
# Jurkat cells [3] = assay: M phase checkpoint abrogation / non specific toxicity in colchicine treated Jurkat cells, flow cytometry; type: cell-based; conditions: 0.5 μg/ml colchicine, up to 50 μM of peptide, FIG. 12
# Protocol: Cell-cycle analysis The cell cycle status of the cells treated with bleomycin or adriamcin were analyzed by flow cytometry as described by Kawabe (1997) Nature 385:454–458. In brief, two million cells were re-suspended and incubated in 200 μul Krishan's solution (0.1% Sodium citrate, 50 μg/ml PI, 20 μg/ml RNase A and 0.5% NP-40) for 1 hr at 4° C. and analyzed by a flow cytometry, FACScan™ (Beckton Dickinson, Mountain View, Calif.) with the program CELLQuest™ (Beckton Dickinson).
# Flow cytometry analysis of M phase checkpoint abrogation by the compounds was performed using human T cell leukemia Jurkat cell line treated with colchicine (5 μg/ml or 0.5 μg/ml) and various doses of peptide/peptidomimetics for 24 hr (FIG. 12). The DNA of the cells was stained and analyzed by flow cytometry as described above.
# The “Appearance of side effect when used alone” indicates the peptide/peptidomimetic dose that produced Jurkat cell cycle disturbance, i.e., the appearance of significant amounts of SubG1 cells (dead cells) or cells in which the DNA content of each varies more than usual. […]
# A comparison between G2 checkpoint abrogating activity and non specific toxicity (M checkpoint abrogation) by CB501 was performed. […] The DNA amount in each of the treated cells was analyzed by flow cytometry, as previously described.
# [4] = Mouse serum treatment analysis, residual peptide by HPLC; type: in vitro ADME; conditions: 1 hr at 37 degree, read-out: Residual peptide after 1 hr human serum treatment (Mouse serum treatment analysis)
# HUVEC [5] = assay: G2 checkpoint abrogation with cis-platin, flow cytometry; type: cell-based, human; conditions: normal G1 checkpoint, at least up to 50 μM CBP501
# Protocol: The medium was aspirated, fresh medium without these compounds was added and the cells were incubated for an additional 45 hr. The cells including floating cells were harvested using trypsin-EDTA solution, incubated with Krishan's solution and analyzed for DNA content by flow cytometry as previously described.
# [6] = test system: MIAPaCa2 human pancreatic carcinoma cells; assay: MIAPaCa2 human pancreatic carcinoma subcutaneous tumor in scid mice; type: in vivo, mouse
# Protocol: To study in vivo efficacy of the compounds, MIAPaCa2 human pancreatic carcinoma cells were implanted subcutaneously in scid mice. The treatment was initiated when the size of the primary tumor became 0.1 cm3 (Day0) or larger, e.g., 7 or 8 mm in diameter. CDDP (3 mg/kg) and CBP 501 (10 or 40 mg/kg) were intra-peritoneally administered alone or in combination. Tumor sizes were measured using calipers three times a week, and volumes were calculated using the formula: weight(mg)=[width (mm)2×length (mm)]/2. Mean tumor sizes for each treatment group are plotted (n=4) against the days after the start of treatment (FIG. 10).
# HUVEC [7] = assay: Growth of normal human umbilical endothelial cells (HUVEC); type: cell-based
# Protocol: Similar studies were performed using normal human umbilical endothelial cells (HUVEC).
# [8] = test system: MIAPaCa2 human pancreatic carcinoma cells; assay: Colony formation analysis of MIAPaCa2 cells; type: cell-based; conditions: CBP501 with cisplatin or oxaliplatin (1, 3 or 9 μg/ml), three hours then 10 days
# Protocol: Briefly, cells were plated at 300 cells/well in 6 well plates, incubated overnight, and treated with the compounds for three hours. The medium was changed and cultured for an additional 10 days. Cells were subsequently fixed with 70% methanol, stained with 0.1% crystal violet and visualized.
# Jurkat cells [9] = assay: G2 checkpoint abrogation in bleomycin treated Jurkat cells, flow cytometry; type: cell-based, human; conditions: Jurkat cells; with 40 μg/ml bleomycine, 24 hours; dose with detectable G2 checkpoint abrogation
# Protocol: Flow cytometry analysis of G2 checkpoint abrogation was performed using human leukemia derived Jurkat cell line. In brief, cultured cells were treated with various doses of peptide/peptidomimetic and 40 μg/ml bleomycine for 24 hr. The DNA of the cells was stained with propidium iodide and analyzed by flow cytometry.
# The “Appearance of side effect when used alone” indicates the peptide/peptidomimetic dose that produced Jurkat cell cycle disturbance, i.e., the appearance of significant amounts of SubG1 cells (dead cells) or cells in which the DNA content of each varies more than usual. […] The “G2 abrogating dose” indicates the peptide/peptidomimetic dose with 40 μg/ml bleomycine that produced detectable G2 checkpoint abrogation activity following treatment for 24 hours. The “Appearance of side effect when used with colchicine” indicates the peptide/peptidomimetic dose with 5 μg/ml colchicine that produced Jurkat cell cycle disturbance following treatment for 24 hours.
# MIAPaCa2 [10] = assay: Sensitization of MIAPaCa2 to bleomycin or adriamycin, % sub-G1 cells by flow cytometry; type: cell-based, human; conditions: bleomycine 10 μg/ml or adriamycin 1 μg/ml, 3 hours then 21 hours
# Protocol: Cell culture A human T-cell leukemia-derived cell line, Jurkat, was cultured in RPMI 1640 (Sigma) supplemented with 10% fetal calf serum (IBL: Immuno-Biological Laboratories, Gunma, Japan) at 37° C./5% CO2. Human pancreatic cancer derived cell line, MIAPaCa2 was cultured in DMEM with 10% fetal calf serum at 37° C./5% CO2.
# The G2 checkpoint abrogating activity of various compounds at different doses on human pancreatic cancer derived cell line MIAPaCa2 treated with bleomycine (Bleo) or adriamycin (ADR) was studied. Briefly, cells were incubated with the compounds and bleomycine (10 μg/ml) or adriamycin (1 μg/ml) for 3 hours. The medium was changed and incubated for an additional 21 hours. Harvested cells were stained for DNA by propium iodide and analyzed with flow cytometry as previously described. The % of the sub-G1 cell population is indicated as dead cells in FIG. 3.
smiles,measurement,setting,value
"N=C(N)NCCC[C@@H](NC(=O)[C@@H](CCCNC(=N)N)NC(=O)[C@@H](CCC(N)=O)NC(=O)[C@@H](CCCNC(=N)N)NC(=O)[C@@H](CCCNC(=N)N)NC(=O)[C@@H](CCCNC(=N)N)NC(=O)[C@@H](CC1CCCCC1)NC(=O)[C@@H](Cc1c(F)c(F)c(F)c(F)c1F)NC(=O)[C@@H](CO)NC(=O)[C@@H](Cc1c[nH]c2ccccc12)NC(=O)[C@@H](CO)NC(=O)[C@H](N)Cc1ccc(C(=O)c2ccccc2)cc1)C(=O)O [CBP501, (d-Bpa)(d-Ser)(d-Trp)(d-Ser)(d-Phe-2,3,4,5,6-F)(d-Cha)(d-Arg)(d-Arg)(d-Arg)(d-Gln)(d-Arg)(d-Arg)] (H-[dBpa][dS][dW][dS][dPhe(F5)][dCha][dR][dR][dR][dQ][dR][dR]-OH; N-terminus and C-terminus assumed)",Stability in serum (in words),[1],more stable in serum
same,Cell growth inhibition alone (in words),MIAPaCa2 [2]; compared with cisplatin,inhibits cell growth better than cisplatin in molar dose
same,Cell growth suppression combined with 10 μM of cisplatin (in words),MIAPaCa2 [2]; with 10 μM cisplatin,suppressed cell growth at a much lower dose
same,Non specific toxicity (M checkpoint abrogation) (in words),Jurkat cells [3],absent; also recorded: does not affect M phase cell cycle arrest and/or non specific toxicity induced by colchicine
same,"remaining at 1 h, 10 mM",[4],> 90%
same,Solubility in water (in words),Solubility in water,soluble in water
same,Sensitization of HUVEC cells to cisplatin (in words),HUVEC [5],not sensitized
same,"Tumor growth, CBP501 treatment alone (in words)",[6]; CBP501 10 or 40 mg/kg intra-peritoneal,suppresses the growth of human pancreatic cancer cell in vivo
same,Anti-tumor activity of cisplatin in combination (in words),[6]; CDDP 3 mg/kg with CBP501 10 or 40 mg/kg intra-peritoneal,increased the anti-tumor activity of cisplatin
same,"Effect on growth of HUVEC cells, peptide alone (in words)",HUVEC [7],does not affect the growth of HUVEC cells
same,"Effect on cyto-toxic activity of cisplatin and oxaliplatin, colony formation (in words)",[8],enhanced the cyto-toxic activity of both cisplatin and oxaliplatin
same,G2 abrogating dose,Jurkat cells [9],≧0.39 μM
same,"Sensitization of MIAPaCa2 cells to bleomycin and adriamycin (% sub-G1, in words)",MIAPaCa2 [10],sensitized MIAPaCa2 cells to both bleomycin and adriamycin in a dose dependent manner
